Experimental data as given in US20240271099A1, “METHOD FOR GENERATING HIGHLY FUNCTIONAL HEPATOCYTES BY DIFFERENTIATING HEPATOBLASTS” (INSTITUT NATIONAL DE LA SANTÉ ET DE LA RECHERCHE MÉDICALE, priority 2021, published 2024).

Tested on: Glucose-6-Phosphatase activity
Assay: Glycogenolysis (glucose release after glucagon)
Format: cell-based, human
Settings: 3D spheroids, 10 nmol/L glucagon, 3 h
Experimental: Glycogen Glucose metabolism. iHeps in 2D and 3D culture were investigated to assess the glycogen storage and glucose homeostasis regulation. Briefly, at specific time points along the 2D and 3D cultures, cells were treated for 3 h with a homemade low-glucose medium with or without 10 nmol/L glucagon (Sigma-Aldrich) to induce glucose release from the glycogen storage. Media samples were then collected and glucose concentration was determined using the High Sensitivity Glucose Assay Kit (Sigma). Periodic acid-Schiff (PAS) staining was then carried out on 2D and 8 μm cryosections of the very same samples. Specimens were fixed for 10 minutes at room temperature with 4% formol then treated with 1% periodic acid solution (Sigma-Aldrich) for 10 minutes. After washing, slides were immersed in Schiff's reagent (Fisher Scientific) for 30 minutes at RT. Before counterstaining with Mayer's Hematoxylin (Sigma), samples were washed carefully with Scott's tap water.
To investigate further, 3D specimens (iHeps and PHHs) were incubated for 4 h with 25 mM D-Glucose and 100 nM insulin to mimic hyperglycemia. Glycogen synthesis and storage were then determined using the Periodic Acid-Schiff (PAS) Staining Kit (Sigma-Aldrich) as described above. […] The media were then collected, and glucose levels determined using the High Sensitivity Glucose Assay Kit (Sigma).

## glucagon
  glycogenolysis, times higher than basal release (w/o glucagon): 3 times
